This experiment addresses human adenosine A2b receptor (Homo sapiens (Human), UniProt P29275). Description: Cellular in vitro reporter gene test for A2b receptor activity (CHO-K1, CRE-luciferase, NECA stimulation). To be noted: recombinant CHO-K1 cell line, CRE-luciferase reporter, antagonism of EC50 concentration of NECA; in some cases means of several determinations, rounded to two significant figures; read-out: A2b receptor IC50. The experiment is classed as cell-based. Summed up:
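CHO-K1 cells with CRE-driven luciferase; antagonists co-incubated with NECA at its EC50, determined in a pre-experiment on each test day. Luciferase read by luminescence 3 h after NECA addition.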
A general note: A reporter such as luciferase makes a cellular process visible.

pIC50: −log10 of the molar value.

human adenosine A2b receptor, sequence (P29275 whole entry): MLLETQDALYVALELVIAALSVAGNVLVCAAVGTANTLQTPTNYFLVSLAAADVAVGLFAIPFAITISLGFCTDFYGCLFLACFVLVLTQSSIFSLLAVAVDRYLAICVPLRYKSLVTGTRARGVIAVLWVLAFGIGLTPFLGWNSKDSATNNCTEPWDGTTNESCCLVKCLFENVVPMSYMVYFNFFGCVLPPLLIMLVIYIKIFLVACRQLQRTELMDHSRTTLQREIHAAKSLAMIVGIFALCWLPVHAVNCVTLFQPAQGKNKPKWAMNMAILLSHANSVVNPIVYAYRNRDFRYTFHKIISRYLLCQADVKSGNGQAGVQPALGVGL

Usually pIC50 stands for the IC50 on a negative log10 scale, so that one unit is a factor of ten. On to `COC(C)(C)Cn1c(=O)c2c(C)c(CN3CCNC3=S)sc2n(CCCF)c1=O` [Example 171, 1-(3-Fluoropropyl)-3-(2-methoxy-2-methylpropyl)-5-methyl-6-[(2-thioxoimidazolidin-1-yl)methyl]thieno[2,3-d]pyrimidine-2,4(1H,3H)-dione], for which the pIC50 was 7.89.
With `Cc1c(Cn2[nH]ccc2=O)sc2c1c(=O)n(C(C)C)c(=O)n2CC1CCCO1` (single isomer, unassigned) [Example 136, 3-Isopropyl-5-methyl-6-[(5-oxo-2,5-dihydro-1H-pyrazol-1-yl)methyl]-1-(tetrahydrofuran-2-ylmethyl)thieno[2,3-d]pyrimidine-2,4(1H,3H)-dione], the negative logarithm of the IC50 (pIC50) is 6.44.
Turning to `CCOCCn1c(=O)n(CCOC)c(=O)c2c(C)c(CN3CCNC3=O)sc21` [Example 232, 1-(2-Ethoxyethyl)-3-(2-methoxyethyl)-5-methyl-6-[(2-oxoimidazolidin-1-yl)methyl]thieno[2,3-d]pyrimidine-2,4(1H,3H)-dione], the pIC50 is 7.03.
Then `Cc1c(CN2CCNC2=S)sc2c1c(=O)n(CC(F)F)c(=O)n2CC1CCCO1` (single isomer, unassigned) [Example 164, 3-(2,2-Difluoroethyl)-5-methyl-1-(tetrahydrofuran-2-ylmethyl)-6-[(2-thioxoimidazolidin-1-yl)methyl]thieno[2,3-d]pyrimidine-2,4(1H,3H)-dione], with 7.77; and `CCn1c(=O)c2c(C)c(CN3CCNC3=S)sc2n(CC2CCO2)c1=O` (racemic) [Example 34, 3-Ethyl-5-methyl-1-(oxetan-2-ylmethyl)-6-[(2-thioxoimidazolidin-1-yl)methyl]thieno[2,3-d]pyrimidine-2,4(1H,3H)-dione (racemate)], with 8.00.
For `CCn1c(=O)c2c(C)c(CN3CCNC3=S)sc2n(CF)c1=O` [Example 292, 3-Ethyl-1-(fluoromethyl)-5-methyl-6-[(2-thioxoimidazolidin-1-yl)methyl]thieno[2,3-d]pyrimidine-2,4(1H,3H)-dione], the negative-log IC50 (pIC50) is 8.08.
Then `CCn1c(=O)c2c(C)c(CN3CCNC3=O)sc2n(CC#N)c1=O` [Example 81, {3-Ethyl-5-methyl-2,4-dioxo-6-[(2-oxoimidazolidin-1-yl)methyl]-3,4-dihydrothieno[2,3-d]pyrimidin-1 (2H)-yl}acetonitrile], with 7.85.
The value for `Cc1c(CN2CCNC2=O)sc2c1c(=O)n(CC(C)(C)F)c(=O)n2CCC(F)(F)F` [Example 225, 3-(2-Fluoro-2-methylpropyl)-5-methyl-6-[(2-oxoimidazolidin-1-yl)methyl]-1-(3,3,3-trifluoropropyl)thieno[2,3-d]pyrimidine-2,4(1H,3H)-dione] was 7.92.
The value for `Cc1c(Cn2cc[nH]c2=O)sc2c1c(=O)n(CC(C)(C)C)c(=O)n2CC1CCCO1` (racemic) [Example 507, 3-(2,2-Dimethylpropyl)-5-methyl-6-[(2-oxo-2,3-dihydro-1H-imidazol-1-yl)methyl]-1-(tetrahydrofuran-2-ylmethyl)thieno[2,3-d]pyrimidine-2,4(1H,3H)-dione] was 7.55; that for `CCn1c(=O)c2c(C)c(Cn3[nH]ccc3=O)sc2n(CC2CCCO2)c1=O` (single isomer, unassigned) [Example 131, 3-Ethyl-5-methyl-6-[(5-oxo-2,5-dihydro-1H-pyrazol-1-yl)methyl]-1-(tetrahydrofuran-2-ylmethyl)thieno[2,3-d]pyrimidine-2,4(1H,3H)-dione] was 6.74; that for `Cc1c(CN2CCNC2=O)sc2c1c(=O)n(CC(F)(F)F)c(=O)n2CC1COC1` [Example 212, 5-Methyl-1-(oxetan-3-ylmethyl)-6-[(2-oxoimidazolidin-1-yl)methyl]-3-(2,2,2-trifluoroethyl)thieno[2,3-d]pyrimidine-2,4(1H,3H)-dione] was 7.77.
As to `Cc1c(CN2CCNC(=O)C2=O)sc2c1c(=O)n(C(C)C)c(=O)n2CC1CCO1` (single isomer, unassigned) [Example 399, 6-[(2,3-Dioxopiperazin-1-yl)methyl]-3-isopropyl-5-methyl-1-(oxetan-2-ylmethyl)thieno[2,3-d]pyrimidine-2,4(1H,3H)-dione], the pIC50 is 7.59.
The value for `C#CCn1c(=O)c2c(C)c(CN3CCNC3=O)sc2n(CCOC)c1=O` [Example 315, 1-(2-Methoxyethyl)-5-methyl-6-[(2-oxoimidazolidin-1-yl)methyl]-3-(prop-2-yn-1-yl)thieno[2,3-d]pyrimidine-2,4(1H,3H)-dione] was 8.37.
The value for `COCCn1c(=O)n(CCF)c(=O)c2c(C)c(CN3CCNC3=O)sc21` [Example 97, 3-(2-Fluoroethyl)-1-(2-methoxyethyl)-5-methyl-6-[(2-oxoimidazolidin-1-yl)methyl]thieno[2,3-d]pyrimidine-2,4(1H,3H)-dione] was 7.74; that for `CCn1c(=O)c2c(C)c(C(C)N3CCNC3=O)sc2n(CCC(F)(F)F)c1=O` (racemic) [Example 416, 3-Ethyl-5-methyl-6-[1-(2-oxoimidazolidin-1-yl)ethyl]-1-(3,3,3-trifluoropropyl)thieno[2,3-d]pyrimidine-2,4(1H,3H)-dione] was 7.10.
The value for `CCn1c(=O)c2c(C)c(CN3CCNC3=O)sc2n(CC(C)OC)c1=O` (single isomer, unassigned; enantiomer 2) [Example 64, 3-Ethyl-1-(2-methoxypropyl)-5-methyl-6-[(2-oxoimidazolidin-1-yl)methyl]thieno[2,3-d]pyrimidine-2,4(1H,3H)-dione (Enantiomer 2)] was 7.07; that for `COCCn1c(=O)c2c(C)c(Cn3cc[nH]c3=O)sc2n(CC2CCCO2)c1=O` (racemic) [Example 346, 3-(2-Methoxyethyl)-5-methyl-6-[(2-oxo-2,3-dihydro-1H-imidazol-1-yl)methyl]-1-(tetrahydrofuran-2-ylmethyl)thieno[2,3-d]pyrimidine-2,4(1H,3H)-dione] was 7.43; that for `Cc1c(CN2CCNC2=NC#N)sc2c1c(=O)n(CC(C)(C)C)c(=O)n2CC1CCCO1` (single isomer, unassigned) [Example 447, [1-{[3-(2,2-Dimethylpropyl)-5-methyl-2,4-dioxo-1-(tetrahydrofuran-2-ylmethyl)-1,2,3,4-tetrahydrothieno[2,3-d]pyrimidin-6-yl]methyl}imidazolidin-2-ylidene]cyanamide] was 8.01.
Consider `Cc1c(CN2CCNC2=O)sc2c1c(=O)n(CC(C)C)c(=O)n2CC1CCCO1` (single isomer, unassigned) [Example 197, 3-Isobutyl-5-methyl-6-[(2-oxoimidazolidin-1-yl)methyl]-1-(tetrahydrofuran-2-ylmethyl)thieno[2,3-d]pyrimidine-2,4(1H,3H)-dione], for which the pIC50 is 7.74.
With `CCn1c(=O)c2c(C)c(CN3CCNC(=O)C3=O)sc2n(CF)c1=O` [Example 393, 6-[(2,3-Dioxopiperazin-1-yl)methyl]-3-ethyl-1-(fluoromethyl)-5-methylthieno[2,3-d]pyrimidine-2,4(1H,3H)-dione], the pIC50 was 7.35.
Then `CCn1c(=O)c2c(C)c(CN3CCNC3=S)sc2n(CCOC(C)C)c1=O` [Example 33, 3-Ethyl-1-(2-isopropoxyethyl)-5-methyl-6-[(2-thioxoimidazolidin-1-yl)methyl]thieno[2,3-d]pyrimidine-2,4(1H,3H)-dione], with 7.92; and `CCn1c(=O)c2c(C)c(CN3CCNC3=O)sc2n(CC2CCCCO2)c1=O` (single isomer, unassigned) [Example 180, 3-Ethyl-5-methyl-6-[(2-oxoimidazolidin-1-yl)methyl]-1-(tetrahydro-2H-pyran-2-ylmethyl)thieno[2,3-d]pyrimidine-2,4(1H,3H)-dione], with 7.52.
The value for `CCn1c(=O)c2c(C)c(CN3CC[C@@H](O)C3=O)sc2n(CCOC)c1=O` [Example 7, 3-Ethyl-6-{[(3R)-3-hydroxy-2-oxopyrrolidin-1-yl]methyl}-1-(2-methoxyethyl)-5-methylthieno[2,3-d]pyrimidine-2,4(1H,3H)-dione] was 7.48; that for `COCCn1c(=O)n(CCC=C(C)C)c(=O)c2c(C)c(CN3CCNC3=O)sc21` [Example 320, 1-(2-Methoxyethyl)-5-methyl-3-(4-methylpent-3-en-1-yl)-6-[(2-oxoimidazolidin-1-yl)methyl]thieno[2,3-d]pyrimidine-2,4(1H,3H)-dione] was 9.36.
Then `COCCCn1c(=O)c2c(C)c(CN3CCNC3=O)sc2n(CCOC)c1=O` [Example 328, 1-(2-Methoxyethyl)-3-(3-methoxypropyl)-5-methyl-6-[(2-oxoimidazolidin-1-yl)methyl]thieno[2,3-d]pyrimidine-2,4(1H,3H)-dione], with 7.72; and `COC(C)Cn1c(=O)c2c(C)c(CN3CCNC3=NC#N)sc2n(CCC(F)(F)F)c1=O` (single isomer, unassigned) [Example 456, [1-{[3-(2-Methoxypropyl)-5-methyl-2,4-dioxo-1-(3,3,3-trifluoropropyl)-1,2,3,4-tetrahydrothieno[2,3-d]pyrimidin-6-yl]methyl}imidazolidin-2-ylidene]cyanamide], with 7.82.
Consider `CCOCCn1c(=O)n(CC(F)(F)F)c(=O)c2c(C)c(CN3CCNC3=O)sc21` [Example 205, 1-(2-Ethoxyethyl)-5-methyl-6-[(2-oxoimidazolidin-1-yl)methyl]-3-(2,2,2-trifluoroethyl)thieno[2,3-d]pyrimidine-2,4(1H,3H)-dione], for which the pIC50 is 7.60.
In the case of `CCn1c(=O)c2c(C)c(CN3CCNC3=O)sc2n(CC2CCOC2)c1=O` (racemic) [Example 73, 3-Ethyl-5-methyl-6-[(2-oxoimidazolidin-1-yl)methyl]-1-(tetrahydrofuran-3-ylmethyl)thieno[2,3-d]pyrimidine-2,4(1H,3H)-dione (racemate)], the pIC50 is 7.10.

These data come from patent US10428083B2, “Heterocyclylmethyl-thienouracile as antagonists of the adenosine-A2B-receptor” (BAYER PHARMA AKTIENGESELLSCHAFT, priority 2015, dated 2019).
